Marks after values point to notes of the source that are not given here. Starred links: 1 amine or outer side, 2 acyl side, 3 side chain; linkers in the order of their positions; H or OH if unused. Positions of bridges follow the written chain, without caps; N, C: chain ends. Non-standard residues stand in square brackets, D forms with d. Residues, ends and D or L forms follow the SMILES beside them. *: point of attachment. X1 = CC[C@H](C)[C@@H](N[*:1])[C@@H](O)CC(=O)O[C@H](C(=O)[C@H](C)C(=O)[*:2])C(C)C; NMeY = CN[C@@H](Cc1ccc(O)cc1)C(=O)O; dNMeL = CN[C@H](CC(C)C)C(=O)O; Pyruvoyl = CC(=O)C(=O)*
What was measured:
lewis lung carcinomas = details: cited from earlier work
[1] = Stability of aplidine solution and lyophilised dosage form; type: physicochemical
Method: In a currently preferred embodiment freeze-drying was performed from a […] solution of aplidine in 40% (v/v) tert-butanol in Water for Injection (Wfl) containing 25 mg/mL D-mannitol as bulking agent. […] Both reconstituted product and dilutions (up to 1:100 v/v) of the reconstituted product with normal saline appeared to be stable for at least 24 hours after preparation.

[2] = system: NP9 human pancreatic carcinoma; assay: NP9 human pancreatic carcinoma xenograft, primary tumour; type: in vivo, Nu/Nu Swiss mice; details: for Solid tumour weight (g) / Total tumour weight (g): 0.8 mg/kg q4d ip
Excerpt: (§1) Aplidine is a new cyclic depsipeptide with anticancer activity in vitro and in vivo in different tumour types, but it has not been tested in pancreatic carcinoma. Nevertheless, this pathology has a poor prognosis because of difficult early diagnosis, aggressiveness and lack of effective systemic therapies. Most patients die of metastases present at diagnosis. We compared the antitumour effect of aplidine against 2 human pancreatic carcinomas, NP9 and NP18, using orthotopic (ORP) and subcutaneous (SC) tumour implantation models. […] METHODS: Groups of ten male Nu/Nu Swiss mice (4 wk old) were treated with vehicle or aplidine. To evaluate primary tumour response, ip aplidine was given, starting 2 weeks (wk) after implantation, at 0.8 mg/kg q4d for 4 wk (NP9) or at 0.8 mg/kg q4d for 6 wk, ceasing treatment the 4th and 5th wk (NP18). To evaluate the response of NP9 metastasis aplidine regime was 0.8 mg/kg q4d per 3 doses, starting 4 weeks after implantation. We measured final tumour weight, macroscopic viability (viable cortex/total tumour weight), microscopic necrosis, apoptotic induction and signal transduction. […] This effect was due to apoptotic induction leading to a reduced number of viable cells in both tumours. Apoptotic induction on NP18 was associated with PARP cleavage and reduced AKT activation, only in ORT-treated tumours. aplidine induced a decrease in cyclins B1 and D1 and FAK expression only in ORT NP9-treated tumours. […] CONCLUSIONS: The use of an ORT implantation model permitted the observation of the antitumour effect of aplidine on primary tumours and metastases of human pancreatic carcinomas. aplidine altered apoptotic and proliferative pathways, which could explain its antitumour effect.
(§2) We used two human pancreatic carcinomas (NP18 and NP9) perpetuated as orthotopic xenografts in nude mice. NP9 produce an extensive peritoneal dissemination 4-5 weeks after implantation (metastatic). We implanted these tumours in four week-old male Nu/Nu Swiss mice (Charles River), housed in autoclaved cages and provided y-ray sterilized bedding and food. They were anesthetized with 2,2,2-tribromoethanol (Sigma-Aldrich) and 10 mg fragments of each tumour from previous passages were implanted orthotopically (ORT, at the pancreas). Xenografted animals were randomly distributed in control (n=10) and experimental (n=10) groups just before treatment. We excluded animals bearing non palpable tumours after ORT implantation, or with tumour volumes lower than 0.13 cm^3 (0.5 cm in diameter). Treatment schedule depended on tumour growth rate. In the fast growing NP9 tumour, two schedules of treatment were used. In one, treatment started two weeks after tumour implantation, before peritoneal dissemination had occurred. Each animal in the experimental group received ip administrations of aplidine at a dose of 0.8 mg/Kg q4d per four weeks. In the other schedule, treatment started four weeks after tumour implantation, once peritoneal dissemination had occurred, with a regime of aplidine of 0.8 mg/Kg q4d per three doses. The existence of macroscopically visible implants was confirmed one day before the treatment begun, by the sacrifice of one extra animal. In the NP18 tumour, treatment started 4 weeks after tumour implantation and the schedule of aplidine was 0.8 mg/Kg q4d ip for 4 weeks, ceasing treatment for two weeks, and continuing with 0.8 mg/Kg q4d ip for two additional weeks. The animals in the corresponding control groups received i.p. administrations of vehicle following the same schedule. After implantation, and during treatment, mice were inspected twice a week and weighted weekly to monitor for compound toxicity.
(§3) At the end of treatment, animals were euthanized and dissemination recorded. Primary tumours were excised and weighted in all groups. Tumor aliquots were frozen down in liquid nitrogen or fixed in formaline. We counted the number of peritoneal implants in each animal and took samples for histological and molecular analysis. […]

[3] = system: NP18 human pancreatic carcinoma; assay: NP18 human pancreatic carcinoma xenograft, primary tumour; type: in vivo, Nu/Nu Swiss mice; details: for Total tumour weight (g): 0.8 mg/kg q4d ip
Excerpt: as §1, §2, §3

NP9 peritoneal implants = assay: NP9 peritoneal metastases after orthotopic implantation; type: in vivo, Nu/Nu Swiss mice
Excerpt: as §1, §2, §3

MDA-MB231 = details: aplidine 50 nmol/L; cited from earlier work
MCF-7 = details: aplidine 50 nmol/L; cited from earlier work
[4] = system: CT-1, CT-2 and HT-29 cell lines; details: CT-1, CT-2, HT-29; cited from earlier work
ornithine decarboxylase = molecular target: T1, ornithine decarboxylase (Homo sapiens, UniProt P11926); details: all three cell lines; cited from earlier work
T1 construct: endogenous in cells; host or cells: CT-1, CT-2 and HT-29 colon cell lines
T1 sequence (P11926 1-461): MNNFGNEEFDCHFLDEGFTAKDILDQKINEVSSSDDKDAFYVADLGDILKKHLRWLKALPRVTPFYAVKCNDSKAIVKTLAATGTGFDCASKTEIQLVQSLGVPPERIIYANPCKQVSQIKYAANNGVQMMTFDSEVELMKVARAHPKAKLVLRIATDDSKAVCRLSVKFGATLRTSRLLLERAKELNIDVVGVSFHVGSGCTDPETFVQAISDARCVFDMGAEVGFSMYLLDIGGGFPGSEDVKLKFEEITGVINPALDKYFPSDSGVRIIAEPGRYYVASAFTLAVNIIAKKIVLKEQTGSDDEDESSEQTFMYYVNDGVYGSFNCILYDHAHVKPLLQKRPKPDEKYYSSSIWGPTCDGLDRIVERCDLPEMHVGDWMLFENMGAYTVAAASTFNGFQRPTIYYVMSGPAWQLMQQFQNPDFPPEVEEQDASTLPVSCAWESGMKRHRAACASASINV

[5] = system: Non-small cell lung cancer, breast cancer and melanoma cell lines; details: continuous exposure; cited from earlier work
human cancer xenografts = details: cited from earlier work
gastric tumours = details: 1.25 mg/kg; cited from earlier work
prostate tumour = details: 1.25 mg/kg; cited from earlier work
[6] = system: P388 leukaemia and B 16 melanoma; details: mouse, in vivo; cited from earlier work
pancreatic tumour = details: 4 patients with pancreatic tumour, phase I; cited from earlier work

## CC[C@H](C)[C@H]1NC(=O)[C@@H](NC(=O)[C@@H](CC(C)C)N(C)C(=O)[C@@H]2CCCN2C(=O)C(C)O)[C@@H](C)OC(=O)[C@H](Cc2ccc(OC)cc2)N(C)C(=O)[C@@H]2CCCN2C(=O)[C@H](CC(C)C)NC(=O)[C@@H](C)C(=O)[C@H](C(C)C)OC(=O)C[C@@H]1O (some centres unmarked) [didemnin B, reference compound]
Lewis lung carcinomas
  activity in SC implanted lewis lung carcinomas: Unlike didemnin B, aplidine was active

## CC[C@H](C)[C@H]1NC(=O)[C@@H](NC(=O)[C@@H](CC(C)C)N(C)C(=O)[C@@H]2CCCN2C(=O)C(C)=O)[C@@H](C)OC(=O)[C@H](Cc2ccc(OC)cc2)N(C)C(=O)[C@@H]2CCCN2C(=O)[C@H](CC(C)C)NC(=O)[C@@H](C)C(=O)[C@H](C(C)C)OC(=O)C[C@@H]1O [aplidine] (Pyruvoyl-P[dNMeL]T[X1]LP[NMeY](Me); ester 3-C)
[1]
  degradation under stress testing: substantial degradation
[2]; NP9
  active forms of caspases 3, 7 or 8 (Western blot): No active forms of caspases 3, 7 or 8 were detected
[2]; NP9, ORT
  FAK expression (Western blot): downregulation of FAK
  cyclin B1 and cyclin D1 expression (Western blot): decreased expression of cyclin B1 and cyclin D1
  macroscopic appearance, invasion by primary tumour: did not invade other organs of the peritoneum
  Solid tumour weight (g): 3.04 ± 1.04^f g
  Total tumour weight (g): 3.72 ± 1.09^b g
[2]; NP9, ORT treated
  foci of non-viable/necrotic cells, share of each tumour: 75-100%
[2]; NP9, ORT, viable tissue
  Ki67: downregulation
  apoptosis (Hoescht nuclear staining): significantly increased apoptosis
[2]; NP9, SC
  cyclin B1 and cyclin D1 levels (Western blot): no differences in cyclin B1 or cyclin D1 levels
  Solid tumour weight (g): 0.87 ± 0.44^e g
  Total tumour weight (g): 1.56 ± 0.8^a g
[2]; NP9, any site
  difference in total or solid tumour weight vs control: no significant differences
[2]; NP9, both tumour sites
  ERK activation (Western blot): ERK activation was unaltered
[3]; NP18
  size or macroscopic appearance of primary tumour: did not significantly change
[3]; NP18, ORT
  AKT activation (Western blot): Decrease AKT activation
  PARP cleavage (Western blot): PARP cleavage
  caspases 3, 7 and 8 (Western blot): activation of caspases 3, 7 and 8
  Total tumour weight (g): 9.34 ± 1.3^d g
[3]; NP18, ORT treated vs ORT control
  microscopic necrosis (H&E): significantly higher level of necrosis
[3]; NP18, ORT, viable tissue
  apoptosis (Hoescht nuclear staining): significantly increased apoptosis
[3]; NP18, SC
  AKT, caspases 3, 7, 8 and PARP regulation (Western blot): did not alter the regulation of any of these proteins
  Total tumour weight (g): 15.5 ± 5.3^c g
[3]; NP18, any site
  ERK activation (Western blot): No differences in ERK activation
  difference in total or solid tumour weight vs control: no significant differences
NP9 peritoneal implants; established metastases
  apoptotic nuclei per treated implant (Hoescht): 3-6
NP9 peritoneal implants; mouse, in vivo
  Caspase-3 activation and PARP cleavage in metastases: No activation of Caspase-3 nor PARP cleavage
  necrosis in peritoneal implants (H&E): did not contain necrotic areas
NP9 peritoneal implants; treatment initiated before dissemination, 0.8 mg/Kg q4d four weeks
  peritoneal implants: no peritoneal implants were observed in any animal
NP9 peritoneal implants; treatment started once metastases macroscopically evident
  diameter of peritoneal implants: less than 1 mm
NP9 peritoneal implants; treatment started once metastases macroscopically evident, 0.8 mg/Kg q4d three doses
  number of peritoneal implants per animal: 7-20
NP9 peritoneal implants; vs control metastases
  ERK activation in metastases: lower ERK activation
MDA-MB231
  inhibition of growth: 17%
MCF-7
  inhibition of growth: 47%
[4]
  cytotoxic activity: dose-dependent cytotoxic activity
Ornithine decarboxylase
  ornithine decarboxylase activity: decreased ornithine decarboxylase activity
[5]
  concentration to which cell lines were sensitive: >= 0.001 micromol/L
Human cancer xenografts; 2.1 mg/kg
  treated/control (T/C) tumour ratio: 9%
Human cancer xenografts; mice bearing human cancer xenografts
  maximum tolerated dose: 2.1 mg/kg
Gastric tumours
  T/C: 14%
Prostate tumour
  T/C: 25%
[6]
  activity against implanted tumours: active
  optimal dose: 160 micro/kg
Lewis lung carcinomas
  activity in SC implanted lewis lung carcinomas: active
Pancreatic tumour
  tumour response of patients: did not respond

— patent publication US20100041594A1, “Use of Aplidine for the Treatment of Pancreatic Cancer” (Pharma Mar, S.A., priority 2001, published 2010)
